# Measured values as given in ChEMBL document CHEMBL1201862, “PubChem BioAssay data set” (2004).
#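 Exposure lasted 48 hours, with cells grown in 96-well plates and compounds tested at five concentrations. GI50 is the concentration that inhibits growth by half.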 Active and inactive are the calls of the source. No stated cut-off is given here; in the data, active = GI50 up to about 1.1 µM and inactive = higher.
# Experiments:
# Assay in all cases: inhibition of tumour cell growth, NCI panel, 48 h
# SNB-19 = test system: SNB-19
# SK-MEL-28 = test system: SK-MEL-28
# SN12C = test system: SN12C
# HCT-116 = test system: HCT-116
# M14 = test system: M14
# SF-539 = test system: SF-539
# COLO 205 = test system: COLO 205
# CCRF-CEM = test system: CCRF-CEM
# T47D = test system: T47D
# RPMI-8226 = test system: RPMI-8226
# NCI/ADR-RES = test system: NCI/ADR-RES
# KM12 = test system: KM12
# NCI-H226 = test system: NCI-H226
# MDA-MB-231 = test system: MDA-MB-231
# LOX IMVI = test system: LOX IMVI
# HOP-62 = test system: HOP-62
# UO-31 = test system: UO-31
# SF-268 = test system: SF-268
# MCF7 = test system: MCF7
# SK-OV-3 = test system: SK-OV-3
# SR = test system: SR
# MDA-N = test system: MDA-N
# IGROV-1 = test system: IGROV-1
# MOLT-4 = test system: MOLT-4
# PC-3 = test system: PC-3
# DU-145 = test system: DU-145
# NCI-H23 = test system: NCI-H23
# HOP-92 = test system: HOP-92
# K562 = test system: K562
# MDA-MB-435 = test system: MDA-MB-435
# TK-10 = test system: TK-10
# ACHN = test system: ACHN
# CAKI-1 = test system: CAKI-1
# A549 = test system: A549
# SK-MEL-5 = test system: SK-MEL-5
# EKVX = test system: EKVX
# UACC-257 = test system: UACC-257
# NCI-H460 = test system: NCI-H460
# OVCAR-3 = test system: OVCAR-3
# RXF 393 = test system: RXF 393
# OVCAR-5 = test system: OVCAR-5
# SW-620 = test system: SW-620
# SNB-75 = test system: SNB-75
# Hs-578T = test system: Hs-578T
# Malme-3M = test system: Malme-3M
# HCC 2998 = test system: HCC 2998
# BT-549 = test system: BT-549
# U-251 = test system: U-251
# SF-295 = test system: SF-295
# UACC-62 = test system: UACC-62
# HT-29 = test system: HT-29
# SK-MEL-2 = test system: SK-MEL-2
# OVCAR-8 = test system: OVCAR-8
# OVCAR-4 = test system: OVCAR-4
# HL-60 = test system: HL-60
# HCT-15 = test system: HCT-15
# NCI-H522 = test system: NCI-H522
# A498 = test system: A498
# 786-0 = test system: 786-0
smiles,measurement,setting,value
Cc1cc(C)c(S(=O)(=O)N(CCCN)OCCCN)c(C)c1,GI50,SNB-19,> 100 µM (inactive)
same,GI50,SK-MEL-28,> 100 µM (inactive)
same,GI50,SN12C,> 100 µM (inactive)
same,GI50,HCT-116,> 100 µM (inactive)
same,GI50,M14,31.4 µM (inactive)
same,GI50,SF-539,> 100 µM (inactive)
same,GI50,COLO 205,> 100 µM (inactive)
same,GI50,CCRF-CEM,> 100 µM (inactive)
same,GI50,T47D,> 100 µM (inactive)
same,GI50,RPMI-8226,> 100 µM (inactive)
same,GI50,NCI/ADR-RES,> 100 µM (inactive)
same,GI50,KM12,> 100 µM (inactive)
same,GI50,NCI-H226,> 100 µM (inactive)
same,GI50,MDA-MB-231,> 100 µM (inactive)
same,GI50,LOX IMVI,> 100 µM (inactive)
same,GI50,HOP-62,6.52 µM (inactive)
same,GI50,UO-31,> 100 µM (inactive)
same,GI50,SF-268,> 100 µM (inactive)
same,GI50,MCF7,> 100 µM (inactive)
same,GI50,SK-OV-3,> 100 µM (inactive)
same,GI50,SR,> 100 µM (inactive)
same,GI50,MDA-N,> 100 µM (inactive)
same,GI50,IGROV-1,> 100 µM (inactive)
same,GI50,MOLT-4,> 100 µM (inactive)
same,GI50,PC-3,> 100 µM (inactive)
same,GI50,DU-145,> 100 µM (inactive)
same,GI50,NCI-H23,> 100 µM (inactive)
same,GI50,HOP-92,64.1 µM (inactive)
same,GI50,K562,> 100 µM (inactive)
same,GI50,MDA-MB-435,> 100 µM (inactive)
same,GI50,TK-10,> 100 µM (inactive)
same,GI50,ACHN,> 100 µM (inactive)
same,GI50,CAKI-1,> 100 µM (inactive)
same,GI50,A549,> 100 µM (inactive)
same,GI50,SK-MEL-5,> 100 µM (inactive)
same,GI50,EKVX,> 100 µM (inactive)
same,GI50,UACC-257,> 100 µM (inactive)
same,GI50,NCI-H460,> 100 µM (inactive)
same,GI50,OVCAR-3,56 µM (inactive)
same,GI50,RXF 393,> 100 µM (inactive)
same,GI50,OVCAR-5,0.881 µM (active)
same,GI50,SW-620,> 100 µM (inactive)
same,GI50,SNB-75,> 100 µM (inactive)
same,GI50,Hs-578T,> 100 µM (inactive)
same,GI50,Malme-3M,> 100 µM (inactive)
same,GI50,HCC 2998,> 100 µM (inactive)
same,GI50,BT-549,> 100 µM (inactive)
same,GI50,U-251,> 100 µM (inactive)
same,GI50,SF-295,> 100 µM (inactive)
same,GI50,UACC-62,> 100 µM (inactive)
same,GI50,HT-29,> 100 µM (inactive)
same,GI50,SK-MEL-2,> 100 µM (inactive)
same,GI50,OVCAR-8,> 100 µM (inactive)
same,GI50,OVCAR-4,> 100 µM (inactive)
CCC(=O)NC(Nc1ccccc1F)(C(F)(F)F)C(F)(F)F,GI50,SNB-19,> 100 µM (inactive)
same,GI50,SK-MEL-28,> 100 µM (inactive)
same,GI50,SN12C,> 100 µM (inactive)
same,GI50,HCT-116,> 100 µM (inactive)
same,GI50,M14,> 100 µM (inactive)
same,GI50,SF-539,> 100 µM (inactive)
same,GI50,COLO 205,> 100 µM (inactive)
same,GI50,CCRF-CEM,> 100 µM (inactive)
same,GI50,T47D,40.9 µM (inactive)
same,GI50,RPMI-8226,> 100 µM (inactive)
same,GI50,NCI/ADR-RES,> 100 µM (inactive)
same,GI50,KM12,> 100 µM (inactive)
same,GI50,MDA-MB-231,> 100 µM (inactive)
same,GI50,LOX IMVI,> 100 µM (inactive)
same,GI50,UO-31,> 100 µM (inactive)
same,GI50,SF-268,> 100 µM (inactive)
same,GI50,MCF7,> 100 µM (inactive)
same,GI50,SK-OV-3,> 100 µM (inactive)
same,GI50,SR,> 100 µM (inactive)
same,GI50,MDA-N,> 100 µM (inactive)
same,GI50,IGROV-1,> 100 µM (inactive)
same,GI50,MOLT-4,> 100 µM (inactive)
same,GI50,PC-3,> 100 µM (inactive)
same,GI50,DU-145,> 100 µM (inactive)
same,GI50,NCI-H23,> 100 µM (inactive)
same,GI50,HOP-92,> 100 µM (inactive)
same,GI50,K562,> 100 µM (inactive)
same,GI50,HL-60,> 100 µM (inactive)
same,GI50,MDA-MB-435,> 100 µM (inactive)
same,GI50,TK-10,> 100 µM (inactive)
same,GI50,ACHN,> 100 µM (inactive)
same,GI50,CAKI-1,> 100 µM (inactive)
same,GI50,HCT-15,> 100 µM
same,GI50,A549,> 100 µM (inactive)
same,GI50,SK-MEL-5,> 100 µM (inactive)
same,GI50,EKVX,> 100 µM (inactive)
same,GI50,UACC-257,> 100 µM (inactive)
same,GI50,NCI-H460,> 100 µM (inactive)
same,GI50,OVCAR-3,> 100 µM (inactive)
same,GI50,RXF 393,> 100 µM (inactive)
same,GI50,OVCAR-5,> 100 µM (inactive)
same,GI50,SW-620,> 100 µM (inactive)
same,GI50,SNB-75,> 100 µM (inactive)
same,GI50,Hs-578T,> 100 µM (inactive)
same,GI50,NCI-H522,> 100 µM (inactive)
same,GI50,HCC 2998,> 100 µM (inactive)
same,GI50,BT-549,> 100 µM (inactive)
same,GI50,U-251,> 100 µM (inactive)
same,GI50,SF-295,> 100 µM (inactive)
same,GI50,UACC-62,40.6 µM (inactive)
same,GI50,HT-29,> 100 µM (inactive)
same,GI50,SK-MEL-2,> 100 µM (inactive)
same,GI50,OVCAR-8,> 100 µM (inactive)
same,GI50,OVCAR-4,> 100 µM (inactive)
FC(F)(F)C1(C(F)(F)F)OC(Cl)(Cl)C(Cl)(Cl)O1,GI50,SNB-19,> 10 µM (inactive)
same,GI50,SK-MEL-28,> 10 µM (inactive)
same,GI50,HCT-116,> 10 µM (inactive)
same,GI50,M14,> 10 µM (inactive)
same,GI50,SF-539,> 10 µM (inactive)
same,GI50,COLO 205,> 10 µM (inactive)
same,GI50,T47D,> 10 µM (inactive)
same,GI50,NCI/ADR-RES,> 10 µM (inactive)
same,GI50,KM12,> 10 µM (inactive)
same,GI50,NCI-H226,> 10 µM (inactive)
same,GI50,MDA-MB-231,> 10 µM (inactive)
same,GI50,LOX IMVI,> 10 µM (inactive)
same,GI50,HOP-62,> 10 µM (inactive)
same,GI50,SF-268,> 10 µM (inactive)
same,GI50,MCF7,> 10 µM (inactive)
same,GI50,SK-OV-3,> 10 µM (inactive)
same,GI50,MDA-N,> 10 µM (inactive)
same,GI50,IGROV-1,> 10 µM (inactive)
same,GI50,PC-3,> 10 µM (inactive)
same,GI50,DU-145,> 10 µM (inactive)
same,GI50,NCI-H23,> 10 µM (inactive)
same,GI50,HOP-92,> 10 µM (inactive)
same,GI50,MDA-MB-435,> 10 µM (inactive)
same,GI50,TK-10,> 10 µM (inactive)
same,GI50,ACHN,> 10 µM (inactive)
same,GI50,CAKI-1,> 10 µM (inactive)
same,GI50,HCT-15,> 10 µM
same,GI50,A549,> 10 µM (inactive)
same,GI50,SK-MEL-5,> 10 µM (inactive)
same,GI50,EKVX,> 10 µM (inactive)
same,GI50,A498,> 10 µM (inactive)
same,GI50,UACC-257,> 10 µM (inactive)
same,GI50,NCI-H460,> 10 µM (inactive)
same,GI50,OVCAR-3,> 10 µM (inactive)
same,GI50,RXF 393,> 10 µM (inactive)
same,GI50,OVCAR-5,> 10 µM (inactive)
same,GI50,SW-620,> 10 µM (inactive)
same,GI50,Hs-578T,> 10 µM (inactive)
same,GI50,786-0,> 10 µM (inactive)
same,GI50,Malme-3M,> 10 µM (inactive)
same,GI50,NCI-H522,> 10 µM (inactive)
same,GI50,HCC 2998,> 10 µM (inactive)
same,GI50,BT-549,> 10 µM (inactive)
same,GI50,U-251,> 10 µM (inactive)
same,GI50,SF-295,> 10 µM (inactive)
same,GI50,UACC-62,> 10 µM (inactive)
same,GI50,HT-29,> 10 µM (inactive)
same,GI50,SK-MEL-2,> 10 µM (inactive)
same,GI50,OVCAR-8,> 10 µM (inactive)
same,GI50,OVCAR-4,> 10 µM (inactive)
